This is an account of results in US10758513B2, “Modulators of mitochondrial protein import” (THE REGENTS OF THE UNIVERSITY OF CALIFORNIA, priority 2011, dated 2020).

≈ marks a conversion by molar mass, not a printed value.

Test [1] deals with strains lacking the mitochondrial genome (rho null). Put plainly: Yeast growth inhibition, rho null strains. The test is classed as cell-based. The text has this: In general, a standard set of genetic and molecular techniques were used to generate the strains in this study (31, 32). Screening strains were generated based on previously characterized temperature sensitive mutants (see supplementary table 1). The snq1 and pdr5 deletions were introduced in each strain by strain mating with MDY326 or PCR-mediated deletion (33, 34). Overexpression strains were generated by transforming 2p yeast shuttle vectors carrying the gene of interest with the native promoter into the tim10-1 strain using a standard LiCl protocol (35). Transformed yeast was maintained on selective media appropriate for the plasmid's auxotrophic marker. Strains lacking mitochondrial DNA (rho null) were generated by two rounds of selection of the parent on YPD plates supplemented with ethidium bromide (40 μg/ml) followed by two rounds of single colony selection on YPD plates.
(§1) A primary screen was performed using freshly streaked tim10-1 diluted in YPD to an OD600 of approximately 0.0002 and kept on ice throughout the screening run. […] Each plate was shaken in a Beckman orbital shaker to resuspend settled cells, and the OD600 in each well was read by a Wallac Victor plate reader (Perkin Elmer). The top 600 growth inhibitory compounds were determined and assembled into two plates. […]

For test [2], the system named is tim10-1 mutant. Put plainly: Yeast growth inhibition (MIC50), tim10-1 mutant. The following applies: Saccharomyces cerevisiae, read-out: MIC50 that inhibited growth of the tim10-1 mutant. The test is classed as cell-based. As for the experimental part: The screen was conducted with an integrated robotic system with plate scheduling. Briefly, diversity oriented commercial libraries of drug-like compounds from Chembridge and Asinex were screened against the tim10-1 strain at a concentration of approximately 10 μM. The screen encompassed a total of approximately 50,000 compounds dissolved in DMSO. Yeast in YPD medium was aliquoted into 384-well plates followed by compound addition with robotic pinning into the assay wells. DMSO was the vehicle for the small molecules, and several plate columns that contained only 1% DMSO were included as a control with the pinned compounds. As a negative control for growth, wells pinned with the mitochondrial uncoupler CCCP, which caused lethality, were also included. After 2 days of incubation at 25° C., cultures in each well were measured for optical density (O.D.) as a measure of growth. A typical reading for the positive control was OD600=0.8. […]
as §1

For test [3], the target named is T1, Erv1 (Saccharomyces cerevisiae, UniProt P27882).
T1 construct: made in house
T1 sequence (P27882 1-189): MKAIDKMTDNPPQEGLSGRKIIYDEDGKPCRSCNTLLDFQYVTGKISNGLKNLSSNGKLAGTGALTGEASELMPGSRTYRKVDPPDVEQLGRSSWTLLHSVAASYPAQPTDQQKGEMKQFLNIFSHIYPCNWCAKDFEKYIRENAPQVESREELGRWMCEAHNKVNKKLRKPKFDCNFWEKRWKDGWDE
Put plainly: Erv1-His pull-down of partner proteins from mitochondria. The test is classed as binding, yeast. To be noted: 50 μM, 30 min. On the procedure: (A) Mitochondria from a strain expressing C-terminal histidine-tagged Erv1 were incubated with 50 μM MitoBloCK-6 or 1% DMSO for 30 min at 25° C. followed by solubilization in 1% digitonin buffer. As a control, 100 μg of extract was withdrawn (T), and 500 μg lysate was incubated with Ni+^2-agarose beads. The beads were washed and bound proteins (B) were eluted with SDS-PAGE sample buffer. To test effectiveness of binding, 100 μg of the unbound protein fraction (S) was also included. Proteins were analyzed by immunoblotting with polyclonal antibodies against Mia40, Erv1, and cyt c. (B) Recombinant Erv1 was preincubated with MitoBloCK-6 or 1% DMSO for 1 hr at 25° C. and then Erv1 (1 μM) was incubated with reduced Tim13 (15 μM) and Mia40 (1 μM) in a time course assay (Tienson et al., 2009). Aliquots were removed at the indicated times and free thiols on Tim13 were modified with AMS addition. Oxidized and reduced Tim13 were detected by non-reducing SDS-PAGE and immunoblotting with antibodies against Tim13.
MitoBloCK-6 was preincubated with mitochondria isolated from the Erv1-His strain followed by solubilization in 1.0% digitonin and Erv1-His was purified with Ni′ agarose. In DMSO treated cells, a small fraction of the Mia40 and half of the cyt c co-purified with Erv1, as reported previously (Tienson et al., 2009). […]

Test [4] concerns the target T1, Erv1. Put plainly: In vitro Erv1 oxidase activity, Amplex Red-HRP assay. The test is classed as biochemical, yeast.
Protocol: The primary chemical screen used fresh recombinant Erv1 (in buffer 30 mM Hepes, pH 7.4, 100 mM NaCl, 1 mM EDTA) at a concentration of 10 μM, which was expressed as described previously. […] A Biomek FX (Beckman Coulter) was used to pin transfer 0.5 μl of compound from 1 mM stock or DMSO to respective wells. Approximate screening
concentration was 12.5 μM. After completed compound transfer, all plates were incubated at 25° C. in a humidified incubator for 1 hour. A Titertek multidrop was used to dispense 15 μl of Amplex Red-horseradish peroxidase (HRP) (Sigma) mix into all wells of the 384-well plate. The final concentration of Amplex Red and HRP were 46 μM and 0.092 U/ml, respectively. The Amplex Red-HRP solution was shielded from light during the entire experiment. The plates were incubated for an additional 10 min and then 15 μl of the substrate DTT (20 μM) was added to initiate the reduction of 02 to H2O2. […] Plates were then read at an endpoint using an excitation wavelength of 545 nm and an emission wavelength of 590 nm. […]
H2O2 production was measured using a standard fluorometric assay with Amplex Red and horseradish peroxidase (HRP). […] Fluorescence intensity was measured and reactions that were inhibited by more than 50% were picked as potential Erv1 inhibitors and selected for secondary analysis.
Test [5] relates to Δpdr5Δsnq2 strain overexpressing Erv1. Put plainly: Yeast growth inhibition (MIC50), Δpdr5Δsnq2 strain overexpressing Erv1. The test is classed as cell-based. The following applies: Saccharomyces cerevisiae; Δpdr5Δsnq2 overexpressing Erv1 from high copy plasmid. As for the experimental part: For MIC50 analysis in the yeast strains, serial dilution of MitoBloCK-6 (0.5 μl) was pinned into assay plate wells containing 50 μl of yeast (Table 2) in rich ethanol-glycerol media (starting OD600=0.0002). Plates were then incubated at 25° C. in a humidified chamber for 40 hours. Each plate was shaken in a Beckman orbital shaker to resuspend settled cells, and the OD600 in each well was read by a Wallac Victor plate reader (Perkin Elmer).

As to `NC(=S)N/N=C/c1c(O)c(Br)cc2oc3c(c12)CCCC3` [MitoBloCK-1], in test [1], the “sensitivity of rho null strains” value is on record as “sensitive”. Moreover, the MIC50 in test [2] was around 1 µM (≈ 0.368 µg/mL).

With `Oc1c(Cl)cc(Cl)cc1/C=N/c1ccc(Nc2ccccc2)cc1` [MitoBloCK-6], in test [3], the “binding of Mia40 to Erv1 decreased by” value stood at 75% and the “binding of cyt c to Erv1 decreased by” value is on record as 95%. Further, the IC50 in test [4] was 0.9 µM. Besides, in test [5], the MIC50 turned out to be 28.3 µM (≈ 10.1 µg/mL).

As a reminder, the MIC50 is an inhibitory concentration at the 50% level, which refers to growth in some studies and to a panel of isolates in others. As usually defined, the IC50 is the point on the concentration scale where inhibition reaches its midpoint.
